Activity calls are given as the source filed them. The calls are words filed in the database; no cut-off is given here.
Columns and labels:
Echinochloa crus-galli [1] = assay: Post-emergence herbicidal activity against Echinochloa crus-galli (barnyard grass) assessed as mortality at 6.3 g a.i/10 a applied 11 days after germination as foliar spray; type: functional; details: 264 h
Abutilon theophrasti [2] = assay: Post-emergence herbicidal activity against Abutilon theophrasti (velvetleaf) assessed as mortality at 6.3 g a.i/10 a applied 11 days after germination as foliar spray; type: functional; details: 264 h
Ipomoea lacunosa [3] = assay: Post-emergence herbicidal activity against Ipomoea lacunosa assessed as mortality at 6.3 g a.i/10 a applied 11 days after germination as foliar spray; type: functional; details: 264 h
Zea mays = assay: (§1) Post-emergence phytotoxicity against Zea mays (maize) assessed as mortality at 1.6 g a.i/10 a applied 11 days after germination as foliar spray; type: organism-based; details: in vivo, other, 264 h
Glycine max [4] = assay: Post-emergence phytotoxicity against Glycine max (soybean) assessed as mortality at 6.3 g a.i/10 a applied 11 days after germination as foliar spray; type: organism-based; details: in vivo, other, 264 h
Glycine max [5] = assay: (§2) Post-emergence phytotoxicity against Glycine max (soybean) assessed as mortality at 1.6 g a.i/10 a applied 11 days after germination as foliar spray; type: organism-based; details: in vivo, other, 264 h
[6] = (§3) Post-emergence phytotoxicity against Gossypium hirsutum (cotton) assessed as mortality at 6.3 g a.i/10 a applied 11 days after germination as foliar spray; type: organism-based; details: in vivo, 6.3 g a.i/10 a
Echinochloa crus-galli [7] = assay: Post-emergence herbicidal activity against Echinochloa crus-galli (barnyard grass) assessed as mortality at 1.6 g a.i/10 a applied 11 days after germination as foliar spray; type: functional; details: 264 h
Gossypium hirsutum [8] = assay: Post-emergence phytotoxicity against Gossypium hirsutum (cotton) assessed as mortality at 1.6 g a.i/10 a applied 11 days after germination as foliar spray; type: organism-based; details: in vivo, other, 264 h
Abutilon theophrasti [9] = assay: Post-emergence herbicidal activity against Abutilon theophrasti (velvetleaf) assessed as mortality at 1.6 g a.i/10 a applied 11 days after germination as foliar spray; type: functional; details: 264 h
Chenopodium album [10] = assay: Post-emergence herbicidal activity against Chenopodium album assessed as growth inhibition at 25 g a.i/10 a applied 11 days after germination as foliar spray; type: functional, organism-based
Amaranthus retroflexus [11] = assay: Pre-emergence herbicidal activity against Amaranthus retroflexus assessed as mortality per 10 acre; type: functional
Persicaria nodosa [12] = assay: Post-emergence herbicidal activity against Persicaria nodosa assessed as growth inhibition at 25 g a.i/10 a applied 11 days after germination as foliar spray; type: functional, organism-based
Xanthium strumarium [13] = assay: Post-emergence herbicidal activity against Xanthium strumarium (cocklebur) assessed as mortality at 1.6 g a.i/10 a applied 11 days after germination as foliar spray; type: functional; details: 264 h
Digitaria sanguinalis [14] = assay: Pre-emergence herbicidal activity against Digitaria sanguinalis (hairy crabgrass) assessed as growth inhibition at 25 g a.i/10 a; type: functional, organism-based
Xanthium strumarium [15] = assay: Post-emergence herbicidal activity against Xanthium strumarium (cocklebur) assessed as mortality per 10 acre; type: functional
Ipomoea lacunosa [16] = assay: Post-emergence herbicidal activity against Ipomoea lacunosa assessed as mortality at 1.6 g a.i/10 a applied 11 days after germination as foliar spray; type: functional; details: 264 h
Gossypium hirsutum [17] = assay: Post-emergence phytotoxicity against Gossypium hirsutum (cotton) assessed as mortality per 10 acre; type: organism-based; details: in vivo
Ipomoea lacunosa [18] = assay: Pre-emergence herbicidal activity against Ipomoea lacunosa assessed as mortality at 6.3 g a.i/10 a; type: functional; details: Ipomoea lacunosa, pre-emergence
Xanthium strumarium [19] = assay: Pre-emergence herbicidal activity against Xanthium strumarium (cocklebur) assessed as mortality per 10 acre; type: functional
Digitaria sanguinalis [20] = assay: Post-emergence herbicidal activity against Digitaria sanguinalis (hairy crabgrass) assessed as growth inhibition at 25 g a.i/10 a applied 11 days after germination as foliar spray; type: functional, organism-based
Persicaria nodosa [21] = assay: Pre-emergence herbicidal activity against Persicaria nodosa assessed as growth inhibition at 25 g a.i/10 a; type: functional, organism-based
Echinochloa crus-galli [22] = assay: Post-emergence herbicidal activity against Echinochloa crus-galli (barnyard grass) assessed as growth inhibition at 25 g a.i/10 a applied 11 days after germination as foliar spray; type: functional, organism-based
Persicaria nodosa [23] = assay: Post-emergence herbicidal activity against Persicaria nodosa assessed as mortality per 10 acre; type: functional
[24] = Pre-emergence phytotoxicity against Zea mays (maize) assessed as mortality at 1.6 g a.i/10 a; type: organism-based; details: in vivo, 1.6 g a.i/10 a, read-out: mortality
Ipomoea lacunosa [25] = assay: Pre-emergence herbicidal activity against Ipomoea lacunosa assessed as mortality at 1.6 g a.i/10 a; type: functional; details: Ipomoea lacunosa, pre-emergence
Glycine max [26] = assay: Pre-emergence phytotoxicity against Glycine max (soybean) assessed as mortality at 1.6 g a.i/10 a; type: organism-based; details: in vivo, other
Xanthium strumarium [27] = assay: Pre-emergence herbicidal activity against Xanthium strumarium (cocklebur) assessed as mortality at 1.6 g a.i/10 a; type: functional; details: Xanthium strumarium, pre-emergence
Gossypium hirsutum [28] = assay: Pre-emergence phytotoxicity against Gossypium hirsutum (cotton) assessed as mortality at 6.3 g a.i/10 a; type: organism-based; details: in vivo, other
Cyperus iria [29] = assay: Post-emergence herbicidal activity against Cyperus iria assessed as growth inhibition at 25 g a.i/10 a applied 11 days after germination as foliar spray; type: functional, organism-based
Persicaria nodosa [30] = assay: Pre-emergence herbicidal activity against Persicaria nodosa assessed as mortality per 10 acre; type: functional
Amaranthus retroflexus [31] = assay: Post-emergence herbicidal activity against Amaranthus retroflexus assessed as growth inhibition at 25 g a.i/10 a applied 11 days after germination as foliar spray; type: functional, organism-based
[32] = as §1; type: organism-based; details: in vivo, 1.6 g a.i/10 a
Echinochloa crus-galli [33] = assay: Pre-emergence herbicidal activity against Echinochloa crus-galli (barnyard grass) assessed as growth inhibition at 25 g a.i/10 a; type: functional, organism-based
[34] = as §2; type: organism-based; details: in vivo, 1.6 g a.i/10 a
Amaranthus retroflexus [35] = assay: Pre-emergence herbicidal activity against Amaranthus retroflexus assessed as growth inhibition at 25 g a.i/10 a; type: functional, organism-based
Gossypium hirsutum [36] = assay: as §3; type: organism-based; details: in vivo, other, 264 h
Echinochloa crus-galli [37] = assay: Post-emergence herbicidal activity against Echinochloa crus-galli (barnyard grass) assessed as mortality per 10 acre; type: functional
Ipomoea lacunosa [38] = assay: Pre-emergence herbicidal activity against Ipomoea lacunosa assessed as mortality per 10 acre; type: functional
Cyperus iria [39] = assay: Pre-emergence herbicidal activity against Cyperus iria assessed as growth inhibition at 25 g a.i/10 a; type: functional, organism-based
Amaranthus retroflexus [40] = assay: Post-emergence herbicidal activity against Amaranthus retroflexus assessed as mortality per 10 acre; type: functional
Glycine max [41] = assay: Pre-emergence phytotoxicity against Glycine max (soybean) assessed as mortality at 6.3 g a.i/10 a; type: organism-based; details: in vivo, other
Echinochloa crus-galli [42] = assay: Pre-emergence herbicidal activity against Echinochloa crus-galli (barnyard grass) assessed as mortality at 6.3 g a.i/10 a; type: functional; details: Echinochloa crus-galli, pre-emergence
Chenopodium album [43] = assay: Pre-emergence herbicidal activity against Chenopodium album assessed as growth inhibition at 25 g a.i/10 a; type: functional, organism-based
Gossypium hirsutum [44] = assay: Pre-emergence phytotoxicity against Gossypium hirsutum (cotton) assessed as mortality per 10 acre; type: organism-based; details: in vivo
Echinochloa crus-galli [45] = assay: Pre-emergence herbicidal activity against Echinochloa crus-galli (barnyard grass) assessed as mortality per 10 acre; type: functional
Ipomoea lacunosa [46] = assay: Post-emergence herbicidal activity against Ipomoea lacunosa assessed as mortality per 10 acre; type: functional

## COc1cc(OC)nc(Sc2cccc(SC)c2C(=O)O)n1
Echinochloa crus-galli [1]
  mortality at 63 g/ha: < 5%
Abutilon theophrasti [2]
  mortality at 63 g/ha: > 90%
Ipomoea lacunosa [3]
  mortality at 63 g/ha: > 90%
Zea mays
  Activity: Toxic
Glycine max [4]
  Activity: Toxic
Glycine max [5]
  Activity: Toxic
[6]
  mortality at 264 h: > 90%
Echinochloa crus-galli [7]
  mortality at 16 g/ha: < 5%
Gossypium hirsutum [8]
  Activity: Non-toxic
Abutilon theophrasti [9]
  mortality at 16 g/ha: > 90%

## COc1cc(OC)nc(Oc2cccc(C)c2C(=O)O)n1
Chenopodium album [10]
  growth inhibition (GI): Active
Amaranthus retroflexus [11]
  ED90: inactive
Persicaria nodosa [12]
  growth inhibition (GI): Active
Xanthium strumarium [13]
  mortality at 16 g/ha: < 5%
Digitaria sanguinalis [14]
  growth inhibition (GI): Active
Xanthium strumarium [15]
  ED90: 25 gAi
Echinochloa crus-galli [1]
  mortality at 63 g/ha: > 90%
Ipomoea lacunosa [16]
  mortality at 16 g/ha: < 5%
Gossypium hirsutum [17]
  ED20: 0.4 gAi
Ipomoea lacunosa [18]
  mortality at 63 g/ha: < 5%
Xanthium strumarium [19]
  ED90: >100 gAi
Abutilon theophrasti [2]
  mortality at 63 g/ha: > 90%
Digitaria sanguinalis [20]
  growth inhibition (GI): Active
Persicaria nodosa [21]
  growth inhibition (GI): Active
Echinochloa crus-galli [22]
  growth inhibition (GI): Active
Persicaria nodosa [23]
  ED90: 0.4 gAi
[24]
  mortality: > 90%
Ipomoea lacunosa [25]
  mortality at 16 g/ha: < 5%
Glycine max [26]
  Activity: Toxic
Xanthium strumarium [27]
  mortality at 16 g/ha: < 5%
Gossypium hirsutum [28]
  Activity: Non-toxic
Cyperus iria [29]
  growth inhibition (GI): Active
Persicaria nodosa [30]
  ED90: Active
Amaranthus retroflexus [31]
  growth inhibition (GI): Active
[32]
  mortality at 264 h: > 90%
Echinochloa crus-galli [33]
  growth inhibition (GI): Active
[34]
  mortality at 264 h: > 90%
Amaranthus retroflexus [35]
  growth inhibition (GI): Active
Gossypium hirsutum [36]
  Activity: Non-toxic
Echinochloa crus-galli [37]
  ED90: inactive
Ipomoea lacunosa [38]
  ED90: >100 gAi
Cyperus iria [39]
  growth inhibition (GI): Active
Amaranthus retroflexus [40]
  ED90: 0.2 gAi
Glycine max [41]
  Activity: Toxic
Echinochloa crus-galli [42]
  mortality at 63 g/ha: > 90%
Chenopodium album [43]
  growth inhibition (GI): Active
Gossypium hirsutum [44]
  ED20: Toxic
Echinochloa crus-galli [45]
  ED90: Active
Ipomoea lacunosa [46]
  ED90: 100 gAi
Gossypium hirsutum [8]
  Activity: Non-toxic

Source: ChEMBL document CHEMBL3046894, “Synthesis and Herbicidal Activity of Pyrimidinyl Salicylic and Thiosalicylic Acids” (J Pestic Sci, 1996)
